The term IC50 denotes the concentration that gives 50% inhibition.

16 molecules from US11203591B2, “Substituted 6-azabenzimidazole compounds” (Gilead Sciences, Inc., priority 2018, dated 2021) can be followed below.

Chain of human HPK1 (MAP4K1) (Q92918 17-274): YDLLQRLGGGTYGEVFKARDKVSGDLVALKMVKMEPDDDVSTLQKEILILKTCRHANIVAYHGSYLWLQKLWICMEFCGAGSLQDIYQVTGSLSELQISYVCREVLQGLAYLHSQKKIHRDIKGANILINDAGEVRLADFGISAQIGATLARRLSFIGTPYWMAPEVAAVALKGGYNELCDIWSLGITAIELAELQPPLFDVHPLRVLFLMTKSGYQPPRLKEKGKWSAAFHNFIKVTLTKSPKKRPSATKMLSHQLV

The first test deals with human HPK1 (MAP4K1) (Homo sapiens (Human), UniProt Q92918). The test can be described thus: HPK1 IC50 Assay (TR-FRET peptide phosphorylation). Format: biochemical. Conditions: 0.15 nM HPK1, 10 μM ATP, 1 μM STK S1 peptide substrate; geometric mean. On the procedure:
The enzymatic activity of human HPK1 (MAP4K1) was monitored in a biochemical assay in the presence or absence of compounds and using a synthetic peptide substrate. An increase in phosphorylation of the peptide by HPK1 was indicative of its kinase activity.
Recombinant HPK1 kinase domain produced via baculovirus infection of insect cells was obtained from Proteros (Proteros Biostructures #PR-0322) and was pre-activated in the presence of 2 mM ATP (Sigma-Aldrich, cat #GE27-2056-01) and 2 mM magnesium chloride for 16 hours at 4° C. The protein reaction mixture was then loaded to a desalting column (Thermo Fisher Scientific, Cat #89889) to remove excess ATP. HPK1 was eluted with buffer containing 20 mM Tris (2-Amino-2-(hydroxymethyl)propane-1,3-diol) pH 8.0, 150 mM NaCl, 2 mM dithiothreitol and 5% glycerol, and was frozen at −80° C. for later use. HPK1 dual phosphorylation was confirmed by mass spectrometry.
Ten nanoliters of test compounds dissolved in DMSO at various concentrations were dispensed into a 384-well ProxiPlate (PerkinElmer #6008289). Five microliters of a solution of recombinant HPK1 diluted in HPK1 kinase assay buffer (50 mM BES [N,N-Bis(2-hydroxyethyl)-2-aminoethanesulfonic acid], pH 7.0; 10 mM magnesium chloride; 0.01% Triton X-100; 1 mM dithiothreitol; 0.01% bovine serum albumin; 0.1 mM sodium orthovanadate) was added to the compound-containing plate and was incubated for 15 minutes at 25° C. Five microliters of a mixture of ATP (Sigma-Aldrich #A6559) and peptide substrate STK S1 (Cisbio #61ST1BLC) diluted in HPK1 kinase assay buffer was then added to start the reaction. Final concentrations were 0.15 nM for HPK1, 10 μM for ATP, and 1 μM for the STK S1 peptide substrate. The reaction mixture was incubated at 25° C. for 3 hours and was stopped with the addition of 10 μl of an EDTA (Ethylenediaminetetraacetic acid)-containing detection buffer (Cisbio #62SDBRDF) supplemented with Europium cryptate-labeled anti-phospho-serine/threonine antibodies (Cisbio #62ST1PEJ) and XL665-labeled streptavidin (Cisbio #610SAXLG). The mixture was incubated for 16 hours at room temperature and peptide phosphorylation was measured by time-resolved fluorescence energy transfer (665 nm/620 nm) on an Envision plate reader (PerkinElmer).
Data in Table 1 were normalized based on positive (staurosporine) and negative (DMSO) controls. Least squares curve fittings were performed using a four-parameter variable slope nonlinear regression model. IC50 is defined as the concentration of compound required to inhibit 50% of maximum phosphorylation. IC50 values from multiple experiments were averaged by geometric mean and the standard deviation was calculated.
In general terms: Time-resolved FRET reads energy transfer from a long-lived donor to a nearby acceptor.
With `CC(C)n1cnc2cc(-c3ccc4c(c3)N([C@H]3C[C@@](C)(N5CCCCC5)C3)C(=O)C4(C)C)nc(Nc3cc(C(=O)NC4(CF)CC4)c(Cl)c(F)c3F)c21` [Example 292, 2-chloro-5-((6-(3,3-dimethyl-1-((1s,3s)-3-methyl-3-(piperidin-1-yl)cyclobutyl)-2-oxoindolin-6-yl)-3-isopropyl-3H-imidazo[4,5-c]pyridin-4-yl)amino)-3,4-difluoro-N-(1-(fluoromethyl)cyclopropyl)benzamide], half-maximal inhibition (IC50) was put at 0.07 nM.

Still in this test, the particulars now being: recombinant HPK1 kinase domain 0.15 nM, 10 μM ATP, 1 μM STK S1 peptide; geometric mean of multiple experiments.
Regarding `Cc1c(C(=O)NC2(C(F)F)CC2)cc(Nc2nc(-c3cnc4c(c3)N(C3CC(C)(N5CCC6C[C@H]5CO6)C3)C(=O)C4(C)C)cc3ncn(C(C)C)c23)c(F)c1F` (stereo partly shown) [Example 192, 5-((6-(1-((1s,3s)-3-(6-oxa-2-azabicyclo[3.2.1]octan-2-yl)-3-methylcyclobutyl)-3,3-dimethyl-2-oxo-2,3-dihydro-1H-pyrrolo[3,2-b]pyridin-6-yl)-3-isopropyl-3H-imidazo[4,5-c]pyridin-4-yl)amino)-N-(1-(difluoromethyl)cyclopropyl)-3,4-difluoro-2-methylbenzamide], the IC50 amounted to 0.1 nM.
The same measure, in the same setting: the value for `Cc1c(C(=O)NC2(C(F)F)CC2)cc(Nc2nc(-c3cnc4c(c3)N(C3CC(C)(N5CCC6C[C@@H]6C5)C3)C(=O)C4(C)C)cc3ncn(C(C)C)c23)c(F)c1F` (stereo partly shown) [Example 231, 5-((6-(1-((1s,3s)-3-(3-Azabicyclo[4.1.0]heptan-3-yl)-3-methylcyclobutyl)-3,3-dimethyl-2-oxo-2,3-dihydro-1H-pyrrolo[3,2-b]pyridin-6-yl)-3-isopropyl-3H-imidazo[4,5-c]pyridin-4-yl)amino)-N-(1-(difluoromethyl)cyclopropyl)-3,4-difluoro-2-methylbenzamide] was 0.1 nM; that for `Cc1cc(F)c(Nc2nc(-c3cnc4c(c3)N([C@H]3C[C@@](C)(N5C6CCC5COC6)C3)C(=O)C4(C)C)cc3ncn(C(C)C)c23)cc1C(=O)NC1(C(F)F)CC1` [Example 212, 5-((6-(1-((1s,3s)-3-(3-Oxa-8-azabicyclo[3.2.1]octan-8-yl)-3-methylcyclobutyl)-3,3-dimethyl-2-oxo-2,3-dihydro-1H-pyrrolo[3,2-b]pyridin-6-yl)-3-isopropyl-3H-imidazo[4,5-c]pyridin-4-yl)amino)-N-(1-(difluoromethyl)cyclopropyl)-4-fluoro-2-methylbenzamide] was 0.3 nM.
Same read-out and setting: in the case of `CNC(=O)c1cc(Nc2nc(-c3ccc4c(c3)N([C@H]3C[C@@H](N5CCCC(C)(C)C5)C3)C(=O)C43CCN(C(C)=O)CC3)cc3ncn(C4CC4)c23)ccc1C` [Example 161] it was 0.06 nM.
Regarding `CC(C)n1cnc2cc(-c3cnc4c(c3)N([C@H]3C[C@@](C)(N5CCC6CC6C5)C3)C(=O)C4(C)C)nc(Nc3cc(C(=O)NC4(CF)CC4)c(Cl)c(F)c3F)c21` (stereo partly shown) [Example 227, 5-((6-(1-((1s,3s)-3-(3-Azabicyclo[4.1.0]heptan-3-yl)-3-methylcyclobutyl)-3,3-dimethyl-2-oxo-2,3-dihydro-1H-pyrrolo[3,2-b]pyridin-6-yl)-3-isopropyl-3H-imidazo[4,5-c]pyridin-4-yl)amino)-2-chloro-3,4-difluoro-N-(1-(fluoromethyl)cyclopropyl)benzamide], the IC50 stood at 0.1 nM.
Regarding `CC(C)n1cnc2cc(-c3ccc4c(c3)N([C@H]3C[C@@](C)(N5CCCCC5)C3)C(=O)C4(C)C)nc(Nc3cc(C(=O)NC4(C(F)F)CC4)cc(F)c3F)c21` [Example 243, N-(1-(difluoromethyl)cyclopropyl)-3-((6-(3,3-dimethyl-1-((1s,3s)-3-methyl-3-(piperidin-1-yl)cyclobutyl)-2-oxoindolin-6-yl)-3-isopropyl-3H-imidazo[4,5-c]pyridin-4-yl)amino)-4,5-difluorobenzamide], the IC50 came to 0.05 nM.
Same read-out and setting: the value for `Cc1c(C(=O)NC2(C(F)F)CC2)cc(Nc2nc(-c3cnc4c(c3)N([C@H]3C[C@@](C)(N5CCC(F)C6(CC6)C5)C3)C(=O)C4(C)C)cc3ncn(C(C)C)c23)c(F)c1F` (stereo partly shown) [Example 187, N-(1-(Difluoromethyl)cyclopropyl)-3,4-difluoro-5-((6-(1-((1s,3s)-3-(8-fluoro-5-azaspiro[2.5]octan-5-yl)-3-methylcyclobutyl)-3,3-dimethyl-2-oxo-2,3-dihydro-1H-pyrrolo[3,2-b]pyridin-6-yl)-3-isopropyl-3H-imidazo[4,5-c]pyridin-4-yl)amino)-2-methylbenzamide] was 0.2 nM.
On the same count and under the same terms, the value for `CNC(=O)c1cc(Nc2nc(-c3ccc4c(c3)N([C@H]3C[C@@H](N5CCCCC5)C3)C(=O)C43CCN(C(C)=O)CC3)cc3ncn(C4CC4)c23)ccc1Cl` [Example 47] was 0.2 nM.
The same measure, in the same setting: the value for `CC(=O)N1CCC2(CC1)C(=O)N([C@H]1C[C@@H](N3CCCCC3)C1)c1cc(-c3cc4ncn(C(C)C)c4c(Nc4cc(C(=O)NCC(C)C)c(C)cc4F)n3)ccc12` [Example 75] was 0.2 nM; that for `CNC(=O)c1cc(Nc2nc(-c3ccc4c(c3)N([C@H]3C[C@@H](N[C@@H]5CCOC[C@@H]5C)C3)C(=O)C4(C)C)cc3ncn(C(C)C)c23)ccc1C` [Example 12] was 0.09 nM; that for `CNC(=O)c1cc(Nc2nc(-c3ccc4c(c3)N([C@H]3C[C@@H](N5CCCCC5)C3)C(=O)C4(C)C)cc3ncn(C(C)C)c23)ccc1OC(F)(F)F` [Example 140] was 0.3 nM.
Regarding `Cc1c(C(=O)NC2(CF)CC2)cc(Nc2nc(-c3cnc4c(c3)N([C@H]3C[C@@](C)(N5CCCCC5)C3)C(=O)C4(C)C)cc3ncn(C(C)C)c23)c(F)c1F` [Example 186, 5-((6-(3,3-Dimethyl-1-((1s,3s)-3-methyl-3-(piperidin-1-yl)cyclobutyl)-2-oxo-2,3-dihydro-1H-pyrrolo[3,2-b]pyridin-6-yl)-3-isopropyl-3H-imidazo[4,5-c]pyridin-4-yl)amino)-3,4-difluoro-N-(1-(fluoromethyl)cyclopropyl)-2-methylbenzamide], the IC50 is 0.07 nM.
On the same count and under the same terms, in the case of `Cc1c(C(=O)NC2(C(F)F)CC2)cc(Nc2nc(-c3cnc4c(c3)N([C@H]3C[C@@](C)(N5CC6CCC6C5)C3)C(=O)C4(C)C)cc3ncn(C(C)C)c23)c(F)c1F` (stereo partly shown) [Example 209, 5-((6-(1-((1s,3s)-3-(3-Azabicyclo[3.2.0]heptan-3-yl)-3-methylcyclobutyl)-3,3-dimethyl-2-oxo-2,3-dihydro-1H-pyrrolo[3,2-b]pyridin-6-yl)-3-isopropyl-3H-imidazo[4,5-c]pyridin-4-yl)amino)-N-(1-(difluoromethyl)cyclopropyl)-3,4-difluoro-2-methylbenzamide] it was 0.08 nM.
Regarding `CCNC(=O)c1cc(Nc2nc(-c3cnc4c(c3)N([C@H]3C[C@@](C)(N5CCCCC5)C3)C(=O)C4(C)C)cc3ncn(C(C)C)c23)c(F)c(F)c1C` [Example 222, 5-((6-(3,3-Dimethyl-1-((1s,3s)-3-methyl-3-(piperidin-1-yl)cyclobutyl)-2-oxo-2,3-dihydro-1H-pyrrolo[3,2-b]pyridin-6-yl)-3-isopropyl-3H-imidazo[4,5-c]pyridin-4-yl)amino)-N-ethyl-3,4-difluoro-2-methylbenzamide], the IC50 is 0.06 nM.
The same measure, in the same setting: in the case of `CNC(=O)c1cc(Nc2nc(-c3ccc4c(c3)N([C@H]3C[C@@H](N5CCC(C(F)F)C5)C3)C(=O)C4(C)C)cc3ncn(C(C)C)c23)ccc1C` (stereo partly shown) [Example 104, 5-((6-(1-((1s,3s)-3-(3-(difluoromethyl)pyrrolidin-1-yl)cyclobutyl)-3,3-dimethyl-2-oxoindolin-6-yl)-3-isopropyl-3H-imidazo[4,5-c]pyridin-4-yl)amino)-N,2-dimethylbenzamide] it was 0.2 nM.
